# Experimental data reported in PMC3945162 (Psychopharmacology, 2013).
# “And” between values parts separate entries of the source, which are not always exact repeats. Identical values can stand only once. Like-named read-outs stand apart in the source and are kept apart here.
# Legend:
# [1] = test system: rats trained to discriminate METH (1 mg/kg) from saline; format: in vivo, rat
# [2] = test system: rats trained to discriminate DMT (5 mg/kg) from saline; format: in vivo, rat
# hNET [3] = biological target: T1, hNET (Homo sapiens, UniProt P23975); test: cell-based
# human 5-HT1A receptor [4] = biological target: T2, human 5-HT1A receptor (Homo sapiens, UniProt P08908); test: [35S]GTPγS binding functional assay, HEK-5-HT1A; format: biochemical; conditions: for Emax: read-out: 5-HT1A Function [35S]GTPγS Binding % maximal effect
# T2 sequence (P08908 1-422): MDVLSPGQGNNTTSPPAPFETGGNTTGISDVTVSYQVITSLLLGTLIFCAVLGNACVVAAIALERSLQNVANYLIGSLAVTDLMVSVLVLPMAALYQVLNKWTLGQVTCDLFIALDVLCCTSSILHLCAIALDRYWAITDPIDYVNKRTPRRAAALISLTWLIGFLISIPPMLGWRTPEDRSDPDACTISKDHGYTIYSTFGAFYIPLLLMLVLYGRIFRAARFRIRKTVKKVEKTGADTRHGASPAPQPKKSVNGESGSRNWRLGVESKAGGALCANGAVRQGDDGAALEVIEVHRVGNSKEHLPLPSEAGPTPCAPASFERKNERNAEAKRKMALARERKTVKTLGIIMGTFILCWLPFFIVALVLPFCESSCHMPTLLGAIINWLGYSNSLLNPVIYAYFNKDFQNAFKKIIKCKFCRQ
# hSERT [5] = biological target: T3, hSERT (Homo sapiens, UniProt P31645); test: [125I]RTI-55 binding, HEK-hSERT cells
# hDAT [6] = biological target: T4, hDAT (Homo sapiens, UniProt Q01959); test: [3H]Dopamine release, HEK-hDAT cells; format: cell-based; conditions: HEK-hDAT cells
# [7] = test system: rats trained to discriminate DOM (0.5 mg/kg) from saline; format: in vivo, rat; conditions: for Maximum %DAR (drug-appropriate responding): i.p., at dose of maximum DAR
# hNET [8] = biological target: T1, hNET; test: biochemical; format: binding
# human 5-HT2C receptor [9] = biological target: T5, human 5-HT2C receptor (Homo sapiens, UniProt P28335); test: biochemical; format: binding
# T5 sequence (P28335 33-458): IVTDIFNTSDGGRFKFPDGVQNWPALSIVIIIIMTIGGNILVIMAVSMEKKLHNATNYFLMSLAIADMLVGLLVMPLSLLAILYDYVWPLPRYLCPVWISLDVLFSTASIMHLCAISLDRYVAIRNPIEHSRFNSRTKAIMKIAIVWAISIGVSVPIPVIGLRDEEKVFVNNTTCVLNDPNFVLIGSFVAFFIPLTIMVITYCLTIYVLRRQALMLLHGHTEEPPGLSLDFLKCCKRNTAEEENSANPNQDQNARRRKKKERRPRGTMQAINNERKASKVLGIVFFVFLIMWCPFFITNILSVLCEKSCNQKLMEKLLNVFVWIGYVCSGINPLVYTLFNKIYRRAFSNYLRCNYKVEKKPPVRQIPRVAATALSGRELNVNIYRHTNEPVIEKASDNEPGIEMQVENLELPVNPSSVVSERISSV
# human 5-HT2A receptor [10] = biological target: T6, human 5-HT2A receptor (Homo sapiens, UniProt P28223); test: IP-1 formation, HEK-5-HT2A cells; format: cell-based; conditions: for Emax: read-out: 5-HT2A Function IP-1 formation % maximal effect
# hSERT [11] = biological target: T3, hSERT; test: [3H]Serotonin release, HEK-hSERT cells; format: cell-based
# hDAT [12] = biological target: T4, hDAT; test: [3H]Dopamine uptake, HEK-hDAT cells; format: cell-based
# hDAT [13] = biological target: T4, hDAT; test: [125I]RTI-55 binding, HEK-hDAT cells
# [14] = test system: rats trained to discriminate LSD (0.1 mg/kg) from saline; format: in vivo, rat; conditions: for Rate of responding at dose of maximum DAR / Maximum %DAR (drug-appropriate responding): LSD-trained rats; for Maximum %DAR (drug-appropriate responding): i.p., at dose of maximum DAR
# human 5-HT2A receptor [15] = biological target: T6, human 5-HT2A receptor; test: [3H]AA release from HEK-5-HT2A cells; format: cell-based; conditions: for Emax: read-out: 5-HT2A Function [3H]AA release % maximal effect
# human 5-HT2C receptor [16] = biological target: T5, human 5-HT2C receptor; test: cell-based; conditions: for Emax: read-out: 5-HT2C Function IP-formation % maximal effect
# Male Swiss–Webster mice = test: Locomotor activity; format: in vivo, mouse
# human 5-HT1A receptor [17] = biological target: T2, human 5-HT1A receptor; test: [3H]8-OH-DPAT binding, HEK-5-HT1A
# Male Sprague-Dawley rats = test: Adverse effects observed during drug discrimination test sessions; format: in vivo, rat
# hSERT [18] = biological target: T3, hSERT; test: [3H]Serotonin uptake, HEK-hSERT cells; format: cell-based
# [19] = test system: rats trained to discriminate MDMA (1.5 mg/kg) from saline; format: in vivo, rat; conditions: for Rate of responding at dose of maximum DAR / Maximum %DAR (drug-appropriate responding): MDMA-trained rats; for Maximum %DAR (drug-appropriate responding): i.p., at dose of maximum DAR
# human 5-HT2A receptor [20] = biological target: T6, human 5-HT2A receptor; test: [125I]DOI binding, HEK-5-HT2A cells
# hNET [21] = biological target: T1, hNET; test: cell-based; remark: listed apart in the source
# [22] = METH-trained rats, 15 min pretreatment
# [23] = DMT-trained rats, 15 min pretreatment
# [24] = 10 mg/kg, METH-trained rats, 15 min
# T4 sequence (Q01959 whole entry): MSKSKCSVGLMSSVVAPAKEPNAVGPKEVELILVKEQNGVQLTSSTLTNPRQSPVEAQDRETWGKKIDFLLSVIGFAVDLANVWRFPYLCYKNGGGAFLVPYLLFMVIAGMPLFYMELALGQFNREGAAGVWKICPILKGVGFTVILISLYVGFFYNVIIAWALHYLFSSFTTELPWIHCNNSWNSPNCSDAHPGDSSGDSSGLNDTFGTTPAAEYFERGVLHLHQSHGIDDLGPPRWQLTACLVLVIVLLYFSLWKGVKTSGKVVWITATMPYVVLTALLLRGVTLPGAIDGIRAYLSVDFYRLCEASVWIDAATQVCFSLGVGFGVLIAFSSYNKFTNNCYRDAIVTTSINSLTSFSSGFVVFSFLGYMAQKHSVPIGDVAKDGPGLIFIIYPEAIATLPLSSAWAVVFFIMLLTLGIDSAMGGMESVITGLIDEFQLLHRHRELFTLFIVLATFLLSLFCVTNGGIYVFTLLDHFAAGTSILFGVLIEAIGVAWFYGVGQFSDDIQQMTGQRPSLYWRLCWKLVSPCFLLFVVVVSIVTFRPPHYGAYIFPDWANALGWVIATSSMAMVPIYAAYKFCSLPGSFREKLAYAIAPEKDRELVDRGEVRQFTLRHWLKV
# T3 sequence (P31645 whole entry): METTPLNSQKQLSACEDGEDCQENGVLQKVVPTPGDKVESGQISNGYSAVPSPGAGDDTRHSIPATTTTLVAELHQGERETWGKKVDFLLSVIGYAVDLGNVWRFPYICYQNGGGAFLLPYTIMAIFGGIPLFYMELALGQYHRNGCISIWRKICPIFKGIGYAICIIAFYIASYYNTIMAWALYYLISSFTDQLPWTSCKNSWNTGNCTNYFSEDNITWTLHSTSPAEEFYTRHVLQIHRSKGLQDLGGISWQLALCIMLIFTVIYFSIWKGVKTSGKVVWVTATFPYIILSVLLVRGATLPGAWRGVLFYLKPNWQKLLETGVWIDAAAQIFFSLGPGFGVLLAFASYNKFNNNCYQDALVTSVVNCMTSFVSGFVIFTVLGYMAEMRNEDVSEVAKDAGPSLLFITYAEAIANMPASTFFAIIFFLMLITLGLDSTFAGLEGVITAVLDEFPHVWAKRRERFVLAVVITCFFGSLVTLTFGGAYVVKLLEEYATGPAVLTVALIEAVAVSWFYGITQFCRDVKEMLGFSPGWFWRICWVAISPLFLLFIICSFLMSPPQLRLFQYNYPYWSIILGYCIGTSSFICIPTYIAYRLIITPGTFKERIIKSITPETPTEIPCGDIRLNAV
# T1 sequence (P23975 whole entry): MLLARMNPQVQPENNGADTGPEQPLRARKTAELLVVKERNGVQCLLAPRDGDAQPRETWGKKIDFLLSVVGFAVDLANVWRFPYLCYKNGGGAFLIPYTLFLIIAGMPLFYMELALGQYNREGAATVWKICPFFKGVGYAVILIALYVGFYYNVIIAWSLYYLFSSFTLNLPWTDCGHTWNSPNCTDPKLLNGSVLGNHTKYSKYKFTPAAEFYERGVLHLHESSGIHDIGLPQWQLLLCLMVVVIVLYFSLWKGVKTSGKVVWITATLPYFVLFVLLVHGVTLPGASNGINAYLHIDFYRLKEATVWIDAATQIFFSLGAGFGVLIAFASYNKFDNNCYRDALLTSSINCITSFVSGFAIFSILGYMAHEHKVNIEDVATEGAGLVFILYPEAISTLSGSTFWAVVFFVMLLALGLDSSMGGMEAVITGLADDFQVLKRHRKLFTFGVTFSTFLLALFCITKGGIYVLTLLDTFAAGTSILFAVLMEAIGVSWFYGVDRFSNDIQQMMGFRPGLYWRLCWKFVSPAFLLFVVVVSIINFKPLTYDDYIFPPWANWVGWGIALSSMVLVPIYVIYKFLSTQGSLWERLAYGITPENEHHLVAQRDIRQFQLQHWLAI
# T6 sequence (P28223 whole entry): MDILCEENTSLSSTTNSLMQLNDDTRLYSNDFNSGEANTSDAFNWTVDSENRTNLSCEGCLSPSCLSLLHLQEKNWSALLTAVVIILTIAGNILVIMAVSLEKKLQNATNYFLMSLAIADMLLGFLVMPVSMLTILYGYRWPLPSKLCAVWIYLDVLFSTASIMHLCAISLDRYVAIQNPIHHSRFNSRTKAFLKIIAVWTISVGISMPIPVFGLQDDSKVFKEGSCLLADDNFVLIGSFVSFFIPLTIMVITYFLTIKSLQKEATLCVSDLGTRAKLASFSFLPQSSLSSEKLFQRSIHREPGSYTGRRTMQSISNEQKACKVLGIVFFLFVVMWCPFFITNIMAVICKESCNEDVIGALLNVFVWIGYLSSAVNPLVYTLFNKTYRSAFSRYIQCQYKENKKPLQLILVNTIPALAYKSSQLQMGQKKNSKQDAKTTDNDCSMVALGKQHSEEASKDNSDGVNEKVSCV
smiles,measurement,setting,value
"COc1cc(CCN)c(OC)cc1C [2C-D, 2,5-dimethoxy-4-methylphenethylamine]",Rate of responding at dose of maximum DAR,[1]; [22],0.190±0.086 resp/s
same,Rate of responding at dose of maximum DAR,"[1]; METH-trained rats, 70 min pretreatment",0.072±0.032 resp/s
same,Maximum %DAR (drug-appropriate responding),"[1]; METH-trained rats, i.p., 15 min pretreatment, at dose of maximum DAR",15±15 ^2%
same,Rate of responding at dose of maximum DAR,[2]; [23],0.154±0.070 resp/s
same,Rate of responding at dose of maximum DAR,"[2]; DMT-trained rats, 70 min pretreatment",0.332±0.067 resp/s
same,Maximum %DAR (drug-appropriate responding),"[2]; DMT-trained rats, i.p., 70 min pretreatment, at dose of maximum DAR",83±17 %
same,[3H]NE release % METH maximal effect,hNET [3],ND Minimal
same,EC50,human 5-HT1A receptor [4],> 10000 nM
same,Emax,human 5-HT1A receptor [4],< 25%
same,Ki,hSERT [5],> 10000 nM
same,[3H]Dopamine release % METH maximal effect,hDAT [6],ND Minimal
same,Rate of responding at dose of maximum DAR,[7]; 15 min pretreatment,0.383±0.038 resp/s
same,Rate of responding at dose of maximum DAR,[7]; 70 min pretreatment,0.338±0.187 resp/s
same,Maximum %DAR (drug-appropriate responding),[7]; 15 min pretreatment,100±0 %
same,Ki,hNET [8],> 8500 nM
same,Ki,human 5-HT2C receptor [9],12.7 ± 1.3 nM
same,EC50,human 5-HT2A receptor [10],145 ± 39 nM
same,Emax,human 5-HT2A receptor [10],93 ± 6.7%
same,[3H]Serotonin release % PCA maximal effect,hSERT [11],ND Minimal
same,IC50,hDAT [12],> 10000 nM
same,Ki,hDAT [13],> 10000 nM
same,Rate of responding at dose of maximum DAR,[14]; 15 min pretreatment,0.385±0.060 resp/s
same,Rate of responding at dose of maximum DAR,[14]; 70 min pretreatment,0.379±0.054 resp/s
same,Maximum %DAR (drug-appropriate responding),[14]; 15 min pretreatment,83±17 %
same,Maximum %DAR (drug-appropriate responding),[14]; 70 min pretreatment,83±17 %
same,EC50,human 5-HT2A receptor [15],153 ± 28 nM
same,Emax,human 5-HT2A receptor [15],81.1 ± 9.7%
same,EC50,human 5-HT2C receptor [16],71.1 ± 8 nM
same,Emax,human 5-HT2C receptor [16],100 ± 14%
same,Lethality (mice),"Male Swiss–Webster mice; 100 mg/kg i.p., within 30 min",8/8
same,Doses producing stimulant effects on locomotor activity,"Male Swiss–Webster mice; mice, i.p.",3 mg/kg
same,Duration of depressant effects,"Male Swiss–Webster mice; mice, i.p.",20 to 40 min
same,Duration of stimulant effects,"Male Swiss–Webster mice; mice, i.p.",180 min
same,"Onset of depressant effects (within, after injection)","Male Swiss–Webster mice; mice, i.p.",≤ 10 min
same,"Onset of stimulant effects (within, after injection)","Male Swiss–Webster mice; mice, i.p.",≤ 50 min
same,Ki,human 5-HT1A receptor [17],1630 ± 150 nM
same,Rats that failed to complete the first fixed ratio,Male Sprague-Dawley rats; [24],4/6
same,Reddening of the extremities (rats affected/tested),Male Sprague-Dawley rats; [24],2/6
same,Rats with salivation and failure to complete the first fixed ratio,"Male Sprague-Dawley rats; 50 mg/kg, 70 min",Two of three
same,IC50,hSERT [18],> 8400 nM
same,Rate of responding at dose of maximum DAR,[19]; 15 min pretreatment,0.402±0.073 resp/s
same,Rate of responding at dose of maximum DAR,[19]; 70 min pretreatment,0.547±0.127 resp/s
same,Maximum %DAR (drug-appropriate responding),[19]; 15 min pretreatment,61% and 61±20 ^2%
same,Ki,human 5-HT2A receptor [20],23.9 ± 3.9 nM
same,IC50,hNET [21],> 9200 nM
"COc1cc(CCN)c(OC)cc1Cl [2C-C, 2,5-dimethoxy-4-chlorophenethylamine]",Rate of responding at dose of maximum DAR,[1]; [22],0.156±0.096 resp/s
same,Dose(s) that decreased response rate,"[1]; rat, in vivo",25 mg/kg
same,Rate of responding at dose of maximum DAR,[2]; [23],0.235±0.098 resp/s
same,Dose(s) that decreased response rate,"[2]; rat, in vivo",10 mg/kg
same,[3H]NE release % METH maximal effect,hNET [3],ND Minimal
same,EC50,human 5-HT1A receptor [4],> 10000 nM
same,Emax,human 5-HT1A receptor [4],< 25%
same,Ki,hSERT [5],> 10000 nM
same,[3H]Dopamine release % METH maximal effect,hDAT [6],ND Minimal
same,Rate of responding at dose of maximum DAR,[7]; 15 min pretreatment,0.366±0.070 resp/s
same,Maximum %DAR (drug-appropriate responding),[7]; 15 min pretreatment,82±16 %
same,Ki,hNET [8],> 7600 nM
same,Ki,human 5-HT2C receptor [9],5.4 ± 1.2 nM
same,EC50,human 5-HT2A receptor [10],40.1 ± 4.7 nM
same,Emax,human 5-HT2A receptor [10],102 ± 5.5%
same,[3H]Serotonin release % PCA maximal effect,hSERT [11],ND Minimal
same,IC50,hDAT [12],> 10000 nM
same,Ki,hDAT [13],> 10000 nM
same,Rate of responding at dose of maximum DAR,[14]; 15 min pretreatment,0.200±0.079 resp/s
same,Maximum %DAR (drug-appropriate responding),[14]; 15 min pretreatment,75% and 75±25 ^2%
same,Dose(s) that decreased response rate,"[14]; rat, in vivo",10 mg/kg
same,EC50,human 5-HT2A receptor [15],13.9 ± 6.1 nM
same,Emax,human 5-HT2A receptor [15],64.2 ± 2.2%
same,EC50,human 5-HT2C receptor [16],24.2 ± 5.6 nM
same,Emax,human 5-HT2C receptor [16],93.5 ± 6.5%
same,Convulsions (mice affected/tested),"Male Swiss–Webster mice; 100 mg/kg i.p., at 30 min",2/8
same,Tremors (mice affected/tested),"Male Swiss–Webster mice; 100 mg/kg i.p., at 30 min",6/8
same,Lethality (mice),"Male Swiss–Webster mice; 100 mg/kg i.p., within 120 min",1/8
same,"Onset of depressant effects (within, after injection)","Male Swiss–Webster mice; mice, i.p.",≤ 10 min
same,Ki,human 5-HT1A receptor [17],740 ± 170 nM
same,Reddening of the extremities (rats affected/tested),Male Sprague-Dawley rats; 25 mg/kg i.p.,3/3
same,Salivation (rats affected/tested),Male Sprague-Dawley rats; 25 mg/kg i.p.,1/3
same,IC50,hSERT [18],> 9600 nM
same,Rate of responding at dose of maximum DAR,[19]; 15 min pretreatment,0.244±0.086 resp/s
same,Maximum %DAR (drug-appropriate responding),[19]; 15 min pretreatment,89±11 %
same,Dose(s) that decreased response rate,"[19]; rat, in vivo",2.5 mg/kg
same,Ki,human 5-HT2A receptor [20],5.47 ± 0.68 nM
same,IC50,hNET [21],> 9500 nM
